Measurements as given in patent EP0441876B1, “NON-BIOA[…]” (COULSTON INTERNATIONAL CORPORATION, priority 1988, dated 1990).

How the values were obtained:
Aedes aegypti = experiment: Filter paper test for insecticidal activity against mosquitoes (Table 3); assay type: in vivo; conditions: for 100 % kill: time after which 100% of the mosquitoes were killed
Method: The experimental design of the test for activity against mosquitoes is as follows.
[…] The filter paper was then placed in a petri dish and 10-20 mosquitoes (Aedes aegypti) added. The effect of the chemical on the mosquitoes (flying activity, mortality) was observed and recorded for up to 72 hours. Generally the experiments were in triplicate, the parent cyclodiene and its dechlorinated derivative were tested and compared to the control; the filter paper of the control was treated with acetone only. A total of 9 pairs of chemicals (parent cyclodiene and dechlorinated derivative) and CIC-134 were tested according to the procedure above.

[1] = system: Mosquitoes: Aedes aegypti, Anopheles quadramaculatus; experiment: Insecticide testing on filter paper: knock-down and killing effect (Table 5); assay type: in vivo; conditions: for Lowest Concentration With Killing Effect / Lowest Concentration for Knockdown: concentration of acetone solution, 1 ml on filter paper
Method: (§1) • I. Insecticide Testing Insects: Mosquitoes Species: Aedes aegypti, Anopheles quadramaculatus The mosquitoes were bred under controlled conditions (humidity, temperature and nutrition) at White Sands Research center. Test room temperature: approximately 70 F (average) Test room humidity: between 50% and 70% (average) Procedure: The test compounds were dissolved in HPLC grade acetone at the appropriate concentrations. One ml of the solution was applied with a disposable 1 ml syringe on filter paper (Whatman 541, 9.0 cm diameter). After evaporatin of the acetone, the filter paper was placed in a Petri dish (diameter also about 9.0 cm) with alid. […] The mosquitoes (not less than 5 or more than 20) were transferred in the dish through a hole in the lid. The lid was stopped up with a cotton ball wrapped in filter paper and soaked in sugar water. Two dishes with control insects - the filter paper was treated with 1 ml pure acetone - were observed. Readings were taken 3 to 4 times during the first hour, thereafter every hour. […] "Down" (D) = mosquitoes are disabled to fly, lay on their back or side. "Dead" = mosquitoes are completely moveless (e.g. no movement of body, legs or wints). these criteria can be considered as very strict. • II. Bioaccumulation Tests in Rats Species: Sprague Dawley and Fisher Rats Sex: Female Age/Weight: Young rats (average weight between 130 and 180 grams) Procedure: The animals were housed in stainless steel metabolism cages in a temperature controlled animal room. They were quarantined for at least 6 days before being placed on the study. Three rats were taken for each test compound (see appendix for dose levels). Each animal was dosed on five consecutive days by oral gavage. The test compound was dissolved or suspended in 0.5% carboxy methyl cellulose solution or corn oil (Mazola). After 14 days the rats were sacrificed by CO2. Samples of fat (abdominal) liver, kidneys, brain and muscle (leg) were removed and extracted for analysis. The fat of each rat was analyzed separately with regard to the individual total dose. The other organs of all three rats were combined and analyzed with regard to the total dose being applied to all three rats. The analysis was done by gas chromatography under ECD (electron capture detector) detection.

[2] = Bioaccumulation tests in rats; assay type: in vivo, Sprague Dawley and Fisher Rats; conditions: female rats, oral gavage on five consecutive days, sacrificed after 14 days, tissue analysis by GC-ECD with regard to total dose
Method: as §1

[3] = system: Tenebrio molitor (Greater Meal Worm); experiment: Contact test at 1% concentration; assay type: in vivo
[4] = system: Sitophilus Oryza (Rice Weevil); experiment: Contact test at 1% concentration; assay type: in vivo
Grainery Weevil = experiment: Contact test at 1% concentration; assay type: in vivo
Maize Weevil = experiment: Contact test at 1% concentration; assay type: in vivo
[5] = system: Blatella germanica (German cockroach); experiment: Contact test at 1% concentration; assay type: in vivo
[6] = system: Mosca domestica (House fly); experiment: Contact test at 1% concentration; assay type: in vivo
[7] = system: Acheta domestica (Crickets); experiment: Contact test at 1% concentration; assay type: in vivo
[8] = system: Cimex lectularius (Bed bugs); experiment: Contact test at 1% concentration; assay type: in vivo
[9] = system: Ctenocephalides felis (Cat fleas); experiment: Contact test at 1% concentration; assay type: in vivo
Pediculus humanus (Lice) = experiment: Contact test at 1% concentration; assay type: in vivo
[10] = 1% solution in acetone, 1 ml on filter paper, time after which 100% of the mosquitoes were affected (dead, lying down, wobbly, erratic)
[11] = 1% solution in acetone, 1 ml on filter paper

Compound | 100% effect (Aedes aegypti; [10]) | 100 % kill (Aedes aegypti; [11]) | Lowest Concentration With Killing Effect [1] | Lowest Concentration for Knockdown [1] | Bioaccumulation in Rats [2] | further results
1,2,3,4,5-endo,6-endo,7-syn-heptachoronorborn-2-ene [CIC-143] | 2 h | 23 h |  |  |  | 
1,2-endo,3-endo,4,7-anti-pentachlronorbornane [CIC-148] | 0.08 h | 6 h | 0.015% | 0.06% | ~1.30% (estimate value) | dead ([1]; 0.015%, after 5 hours): 60%; down ([1]; 0.06%, time not given): 80%
1,2-endo,3-endo,4,7-syn-pentachloronorbornane [CIC-144] | 0.08 h | 23 h | 0.06% | 0.06% | 0.01% | dead ([1]; 0.06%, after 22 hours): 79%; down ([1]; 0.06%, time not given): 55%
1,4,7,7-Tetrachloro-bicyclo [2.2.1]-heptane epoxide [CIC-150] | 4 h | 23 h | 0.5% |  |  | dead ([1]; 0.5%, after 7 hours): 27%
1,4,7,7-Tetrachloro-bicyclo- [2.2.1]-heptane-poxide (less) [CIC-149] | 0.33 h | 9 h | 0.063% | 0.5% |  | dead ([1]; 0.063%, after 6 hours): 67%; down ([1]; 0.5%, after 10 minutes): 36%; Knock-down, remark in words ([1]; in vivo): Not very fast knock-down
Cl[C@@H]1C[C@]2(Cl)CC[C@@]1(Cl)C2(Cl)Cl [CIC-141, 1,2-endo,4,7,7-pentachloronorbornane] | 0.25 h | 10 h | 0.125% | 0.5% |  | down ([1]; 0.5%, 5 minutes): 38%
ClC12C=CC(Cl)(CC1)C2(Cl)Cl [CIC-142, 1,4,7,7-tetrachloronorbon-2-ene] | 0.25 h | 3 h | 0.3% | 0.75% | 1.24% | insecticidal effect in contact test [3]: effective insecticides; insecticidal effect in contact test [4]: effective insecticides; insecticidal effect in contact test (Grainery Weevil): no effect; insecticidal effect in contact test (Maize Weevil): effective insecticides; insecticidal effect in contact test [5]: effective insecticides; insecticidal effect in contact test [6]: effective insecticides; insecticidal effect in contact test [7]: only mildly effective; insecticidal effect in contact test [8]: effective insecticides; insecticidal effect in contact test [9]: effective insecticides; insecticidal effect in contact test (Pediculus humanus (Lice)): effective insecticides; down ([1]; 0.75%, after 4 minutes): 37%
Cl[C@@H]1[C@H](Cl)[C@]2(Cl)CC[C@@]1(Cl)C2 [CIC-145, 1,2-endo,3-endo,4-tetrachloronorbornane] | 0.08 h | 3 h | 0.04% | 0.08% | >> 0.01% | insecticidal effect in contact test [3]: effective insecticides; insecticidal effect in contact test [4]: effective insecticides; insecticidal effect in contact test (Grainery Weevil): effective insecticides; insecticidal effect in contact test (Maize Weevil): effective insecticides; insecticidal effect in contact test [5]: effective insecticides; insecticidal effect in contact test [6]: effective insecticides; insecticidal effect in contact test [7]: effective insecticides; insecticidal effect in contact test [8]: effective insecticides; insecticidal effect in contact test [9]: effective insecticides; insecticidal effect in contact test (Pediculus humanus (Lice)): effective insecticides; mortality at 0.04 % ([1]; 0.04%, after 5 hours, read-out: dead): 62%; down ([1]; 0.08%, after 5 minutes): 63%
Cl[C@H]1[C@H](Cl)[C@@]2(Cl)CC[C@]1(Cl)C2(Cl)Cl [CIC-146, 1,2-exo,3-endo,4,7,7-hexachloronorbornane] | 3 h | 24 h | > 1% |  |  | 
ClC1=CC2(Cl)CCC1(Cl)C2(Cl)Cl (stereo not shown) [CIC-147, 1,2,4,7,7-pentachloronorborn-2-ene] | 0.08 h | 9 h | 0.125% | 0.125% | 1.04% | down ([1]; 0.125%, 10 minutes): 63%; mortality at 0.125 % ([1]; 1.5 h, read-out: dead): 50%
CC1CC2(Cl)CCC1(Cl)C2(Cl)Cl (stereo not shown) [CIC-151, 1,4,7,7-tetrachloro-2-methyl-norbornane] |  |  | 0.50% | 0.5% | 0.01% | 100% effect (Aedes aegypti; 0.5% solution in acetone on filter paper, time after which 100% of the mosquitoes were affected): 0.16 h; 100 % kill (Aedes aegypti; 0.5% solution in acetone on filter paper): 12 h; down ([1]; 0.5%, time not given): 73%; mortality at 0.5 % ([1]; read-out: dead): 73%
